According to paper PMC9402926, “Synthetic short-chain peptide analogues of H1 relaxin lack affinity for the RXFP1 receptor and relaxin-like bioactivity. Clues to a better understanding of relaxin agonist design” (Frontiers in Pharmacology, 2022):

Tests used:
[1] = target: RXFP1-BP (ectodomain of human RXFP1 fused to the single transmembrane and cytoplasmic region of CD8); assay: competition binding with europium-labelled ligand on whole cells; whole cells in 96 well plates; HEK-293T stably expressing RXFP1-BP; single concentration of europium-labeled H2 relaxin (1 nm as printed) with or without increasing concentrations of the competing peptides; non-specific binding with 1 µM serelaxin; triplicates, 2 independent experiments; one site binding model
[2] = system: RXFP1-BP (ectodomain of human RXFP1 fused to the single transmembrane and cytoplasmic region of CD8); assay: Competition binding with europium-labelled H2 relaxin in HEK-293T cells stably expressing RXFP1-BP; settings: 10 µM competing peptide; 1 nm europium-labeled H2 relaxin; whole cells, 96 well plates; triplicate points, 2 independent experiments
Excerpt: Cell culture for ligand-receptor binding assays—Human embryonic kidney cells (HEK-293T) stably expressing RXFP1-BP ([Halls et al., 2005]) were used for competition binding experiments using europium-labelled H2 relaxin, as described ([Shabanpoor et al., 2012]). This construct contains the ectodomain of human RXFP1 fused to the single transmembrane and cytoplasmic region of CD8. This ectodomain-only construct has a higher affinity for single chain H2 relaxin peptides and is used as a surrogate assay for binding affinity. Assays were performed in whole cell 96 well plates assays with a single concentration of the europium-labeled H2 relaxin (1 nm) in the presence or absence of increasing concentrations of the competing peptides. Non-specific binding was assessed using 1 µM of serelaxin. Each concentration point was assessed in triplicate in 2 independent experiments. The binding data were analyzed using GraphPad Prism 9 and expressed as mean ± SEM. They were fitted using a one site binding model.

RXFP1 [3] = assay: ERK1/2 phosphorylation in TGF-β1-induced myofibroblasts from NIH-3T3 fibroblasts expressing RXFP1, Western blot; assay type: cell-based; settings: mouse myofibroblasts (TGF-β 48 h), 30 and 90 min, 3 independent experiments
Experimental: Cell culture for ERK1/2 phosphorylation assay - The RXFP1 downstream ERK1/2 phosphorylation pathway was tested on myofibroblasts using a method based on that described by [Hossain et al. (2016)], with minor modifications. Mouse NIH-3T3 fibroblasts (ATCC, Manassas, VA, United States) expressing RXFP1 ([Sassoli et al., 2013]) were cultured in DMEM supplemented with 10% fetal bovine serum (FBS), 2 mm glutamine, 250 U/ml penicillin G and 250 μg/ml streptomycin, in a humidified atmosphere with 5% CO2 at 37°C. They were induced to myofibroblasts in DMEM containing 2% FBS and 2 ng/ml human TGF-β1 (PeproTech, Rocky Hill, NJ, United States) for 12, 24, 48 and 72 h ([Sassoli et al., 2013]). Myofibroblasts were then incubated for 30 or 90 min with either serelaxin (17 nM), or B7-33 (1.7 μM), or the H1 peptides 6 and 7 (1.7 μM), selected among those which had shown a minimal ability to bind RXFP1 in the competition binding experiments. Untreated myofibroblasts were used as controls. To verify fibroblast-to-myofibroblast transition and ERK1/2 phosphorylation, cells were lysed in cold buffer composed of (mM): 10 Tris/HCl pH 7.4, 10 NaCl, 1.5 MgCl2, 2 Na2EDTA, 1% Triton X-100, added with 10x Sigmafast Protease Inhibitor Cocktail tablets and […] Na3VO4 to inhibit endogenous phosphatases. Total protein content was measured spectrophotometrically using micro-BCA Protein Assay Kit (Pierce). Sixty μg of total proteins were electrophoresed by SDS–PAGE and blotted onto PVDF membranes (Millipore, Bedford, MA, United States). […] Specific bands were detected using appropriate peroxidase-labeled secondary antibodies (1:15,000; Vector, Burlingame, CA, United States) and enhanced chemiluminescent substrate (ECL, Sigma-Aldrich). […]

RXFP1 [4] = assay: cAMP generation in human monocytic THP-1 cells (RXFP1 downstream pathway), Direct cAMP ELISA; assay type: cell-based; settings: serelaxin 17 nm, 15 min, IBMX 100 μM, 3 independent experiments
Experimental: Cell culture for cAMP assay—The RXFP1 downstream cAMP pathway was tested on human monocytic THP-1 cells (ECACC, Salisbury, UK) cultured in suspension in RPMI medium containing 10% foetal bovine serum, 0.05 mm 2-mercaptoethanol, 250 U/ml penicillin G and 250 μg/ml streptomycin, in a 5% CO2 atmosphere at 37°C. Cells (5 × 10^5) were placed in a 24-well plate, added with IBMX (100 μM) to prevent cAMP catabolism and then incubated with the different stimulants. As positive controls, either serelaxin (17 nm) and B7-33 (17, 170, 1700 nm) were used. The H1 peptides 4, 6 and 7, selected among those which had shown a minimal ability to bind RXFP1 in the competition binding experiments, were also used at 17, 170 and 1700 nm final concentration. The cAMP assay was carried out 15 min after RXFP1 stimulation, coinciding with the second sustained cAMP surge ([Nguyen et al., 2003]; [Bani et al., 2007]). The adenylate cyclase activator forskolin (100 μM) was used to determine the maximal cAMP levels. Triplicate cAMP measurements were performed by a Direct cAMP ELISA Kit (Enzo, Milan, Italy). […] The values of cAMP were normalized by the amount of proteins, measured by the micro-BCA Protein Assay Kit (Pierce, IL, United States) and expressed as mg/ml. For statistical purposes, 3 independent experiments were performed.

[5] = i.v. administration; ref Chen et al., 1993; cited from earlier work
Experimental: Since recombinant human H2 relaxin (RLX), later termed serelaxin, was made available as clinical-grade drug ([Stults et al., 1990]), several clinical trials have been performed to explore its therapeutic potential, particularly as cardiovascular and anti-fibrotic agent ([Bani 2020]; [Samuel and Bennett 2021]; [Sassoli et al., 2022]). The last RELAX-AHF-2 phase III trial was performed under the auspices of Novartis Europharm Ltd., owner of the serelaxin patent, to assess its efficacy in patients with heart failure. Regrettably, in spite of encouraging theoretical premises and pre-clinical evide ...

Substance: [Ser10,22]Cyclo[LysN3 17, Pra21]H1RLXB(1-23) (peptide)
- percent competition of Eu-H2 relaxin binding at 10 µM [1]: 20%

Substance: [Ser10,22]Cyclo[Pra17, LysN3 21]H1RLXB(1-23) (peptide)
- percent competition of Eu-H2 relaxin binding at 10 µM [1]: 20%

Substance: [Ser^10,22]Cyclo[LysN3 ^17, Pra^21]H1RLXB(1–23) [compound 7]
- competition of Eu-H2 relaxin binding [2]: ~20%
- ERK1/2 phosphorylation (RXFP1 [3]; peptide 1.7 μM): neither of the H1 peptides 6 and 7 were capable of reproducing the effects of the authentic hormone

Substance: [Ser^10,22]Cyclo[Pra^14, LysN3 ^18]H1RLXB(1–23) [compound 4]
- competition of Eu-H2 relaxin binding [2]: ~20%

Substance: [Ser^10,22]Cyclo[Pra^17, LysN3 ^21]H1RLXB(1–23) [compound 6]
- competition of Eu-H2 relaxin binding [2]: ~20%
- ERK1/2 phosphorylation (RXFP1 [3]; peptide 1.7 μM): neither of the H1 peptides 6 and 7 were capable of reproducing the effects of the authentic hormone

Substance: serelaxin
- elevation of cAMP (RXFP1 [4]): statistically significant elevation of cAMP
- ERK1/2 phosphorylation (RXFP1 [3]; serelaxin 17 nM): statistically significant increase in ERK1/2 phosphorylation
- half-life [5]: ~2 h
